Reference: US20220227772A1, “DEUTERATED TRIAZOLOPYRIMIDINES” (THE TRUSTEES OF THE UNIVERSITY OF PENNSYLVANIA, priority 2019, published 2022)
Like-named read-outs stand apart in the source and are kept apart here.

Experiments:
[1] = test system: total α-tubulin in QBI293 cells; test: QBI293 cell-based MT assay, alpha-tubulin ELISA; settings: 4 h incubation
Method: (§1) The HEK293 cell subclone, QBI293, was maintained in DMEM supplemented with 10% fetal calf or bovine serum, 1% penicillin/streptomycin antibiotic solution and 1% glutamine at 37° C. in 5% CO2. Cells were plated into 6-well plates at a density of 800,000 cells/well. […] Test compounds were added at multiple concentrations to the test wells and incubated for 4 h. Subsequently, the media was removed and the cells were washed with 1 mL of ice-cold phosphate-buffered saline (PBS). After removal of PBS, 0.2 mL of ice-cold RIPA (0.5% sodium deoxycholate, 0.1% SDS, 1% NP-40, 5 mM EDTA, pH 8.0) containing protease inhibitor mix (1 μg/mL each of pepstatin, leupeptin, TLCK, TPCK and trypsin inhibitor), 1 mM PMSF and 1 μM trichostatin A was added to the wells. The wells were then scraped using a cell scraper and pipetted into 1.5 mL microfuge tubes. The tubes were sonicated with a handheld sonicator at 20× on a power setting of 2, followed by centrifugation for 30 min at 15,000 rpm at […]. Supernatants were removed and quantified for protein concentration and the acetyl-tubulin levels were determined using an ELISA as described.
(§2) The enzyme-linked immunosorbent assay (ELISA) was performed as previously described in Brunden, 2011, Pharmacological Research, 63:341, which is incorporated by reference herein. Briefly, 384-well plates were coated with 12G10 α-tubulin antibody (10 μg/mL; Covance, Princeton, N.J., USA) in 30 μL of cold 0.1 M bicarbonate buffer. 12G10 anti-α-tubulin antibody was originally deposited to the Developmental Studies Hybridoma Bank by Frankel and Nelsen. After overnight incubation at 4° C., the plates were blocked in Block Ace solution (Bio-Rad, Hercules, Calif., USA) for a minimum of 24 hours at 4° C. QBI-293 cell homogenates were diluted in C buffer (0.02 M sodium phosphate, 2 mM EDTA, 0.4 M NaCl, 1% BSA, 0.005% Thimerosal, pH 7.0). Typically, […] dilutions from 266 ng/μL to 22.2 ng/μL for QBI cells were performed and 30 μL of sample were added to wells in duplicate. Plates were sealed, centrifuged, and incubated overnight at 4° C. Following incubation with antigen, wells were aspirated and washed with PBS containing 0.05% Tween-20 and 0.005% thimerosal (PBS-Tween buffer). A horseradish peroxidase (HRP)-acetyl-tubulin reporter antibody was prepared by conjugating acetyl-tubulin primary antibody (Sigma Aldrich; clone 6-11B-1) to HRP using a commercially-available peroxidase labeling kit (Roche Applied Science, Indianapolis, Ind., USA). The HRP-acetyl-tubulin reporter antibody (1:1,000 v/v; Sigma Aldrich) or pre-conjugated HRP-alpha-tubulin (1:5,000 v/v; ProteinTech Group, Chicago, Ill., USA) diluted in C buffer were added to appropriate wells (30 μL per well). The plates were sealed and incubated at room temperature for 4 hours on a platform rocker, followed by washing with PBS-Tween buffer. Peroxidase substrate solution (30 μL; KPL, Gaithersburg, Md., USA) was added to each well and the reaction was quenched after 10 min with 10% phosphoric acid (30 μL). Plates were read on a SpectraMax M5 plate reader at an absorbance of 450 nm. The amount of acetyl- and alpha-tubulin protein in each sample was extrapolated using standard curves generated from serial dilutions of known protein standard (acetyl- or alpha-tubulin) concentrations.
(§3) The compounds were evaluated in a QBI293 cell-based MT assay as described in Kovalevich et al., J. Pharmacol. Exp. Ther., 2016, 357, 432-50, which is incorporated by reference herein. In summary, acetylated α-tubulin and total α-tubulin levels were determined by ELISA in cell lysates after 4 h of incubation with test compound at 1 and 10 μM (Table 1).

[2] = Plasma and brain compound levels in wild-type mice; type: in vivo, mouse; settings: for Kp at 1 h: brain/plasma, read-out: B/P
Method: Mouse brains were homogenized in 10 mM ammonium acetate, pH 5.7 (1:2; w/v) using a handheld sonic homogenizer. Mouse plasma was obtained from blood that was collected into a 1.5 mL tube containing 0.5M EDTA solution and which was centrifuged for 10 minutes at 4500 g at […]. Aliquots (50 μL) of brain homogenates (50% w/v in 100 mM NH4OAc pH 5.75) or plasma were mixed with 0.2 ml of acetonitrile, centrifuged at 15,000 g, and the resulting supernatant was used for subsequent LC-MS/MS analysis. Compounds were detected using multiple reaction monitoring (MRM) of their specific collision-induced ion transitions. Samples were separated on an Agilent Zorbax C8 column (3.5 μm, 2.1×50 mm) at 35° C., with mobile phase A of 0.1% (v/v) formic acid, and B of acetonitrile with 0.1% (v/v) formic acid and a gradient of increasing B at 0.4 mL/min. To account for possible matrix effects on analytes, standard curves were generated for each compound from brain homogenate and plasma samples. The standard curve samples were extracted and analyzed in an identical fashion as the corresponding tissue-derived samples, and peak areas were plotted against concentration and a linear regression curve was used to obtain estimated concentrations of the tissue-derived samples using the peak areas. […]

[3] = test system: acetylated α-tubulin in QBI293 cells; test: QBI293 cell-based microtubule stabilization assay, acetyl-tubulin ELISA; settings: 4 h incubation
Method: as §1, §2, §3

[4] = female, mouse, brain, intraperitoneal, 1 h @ 2.5 mg/kg, read-out: Brain conc.
[5] = female, mouse, intraperitoneal, 1 h @ 2.5 mg/kg
[6] = female, mouse, plasma, intraperitoneal, 1 h @ 2.5 mg/kg, read-out: Plasma conc.
[7] = scaled to 5 mg/kg, read-out: Brain conc.
[8] = mouse, brain, 1 h @ 5.0 mg/kg, read-out: Brain conc.
[9] = mouse, plasma, 1 h @ 5.0 mg/kg, read-out: Plasma conc.

SMILES	αTub (α-tubulin relative to vehicle-treated cells) ([1]; 1 μM)	αTub (α-tubulin relative to vehicle-treated cells) ([1]; 10 μM)	AcTub (acetylated-tubulin relative to vehicle-treated cells) ([3]; 1 μM)	AcTub (acetylated-tubulin relative to vehicle-treated cells) ([3]; 10 μM)	also measured
[2H][C@](C)(Nc1c(-c2c(F)cc(F)cc2F)c(Cl)nc2ncnn12)C(C)(C)C (single isomer, unassigned)	1.00 ± 0.03	1.05 ± 0.09	5.71 ± 0.13	7.69 ± 0.49	concentration at 1 h [2, 4]: 296 ± 48 nM; Kp at 1 h [2, 5]: 2.9; concentration at 1 h [2, 6]: 104 ± 14 nM; Plasma conc. ([2]; scaled to 5 mg/kg): 208 nM; concentration at 1 h [2, 7]: 592 nM
[2H][C@@](C)(Nc1c(-c2c(F)cc(F)cc2F)c(Cl)nc2ncnn12)C(C)(C)C (single isomer, unassigned)	1.07 ± 0.05	0.85 ± 0.05	1.10 ± 0.07	2.92 ± 0.04	–
[2H]C(C)(Nc1c(-c2c(F)cc(F)cc2F)c(Cl)nc2ncnn12)C(C)C (single isomer, unassigned) [5-chloro-N-(3-methylbutan-2-yl-2-d)-6-(2,4,6-trifluorophenyl)-[1,2,4]triazolo[1,5-a]pyrimidin-7-amine]	–	–	–	–	concentration at 1 h [2, 4]: 551 ± 56 nM; Kp at 1 h [2, 5]: 2.8; concentration at 1 h [2, 6]: 199 ± 46 nM
[2H]C(C)(Nc1c(-c2c(F)cc(F)cc2F)c(Cl)nc2ncnn12)C(C)C (single isomer, unassigned) [5-chloro-N-(3-methylbutan-2-yl-2-d)-6-(2,4,6-trifluorophenyl] [5-chloro-N-(3-methylbutan-2-yl-2-d)-6-(2,4,6-trifluorophenyl)-[1,2,4]triazolo[1,5-a]pyrimidin-7-amine]	–	–	–	–	αTub (α-tubulin relative to vehicle-treated cells) ([1]; 1 μM, enantiomer 1): 1.16 ± 0.04; αTub (α-tubulin relative to vehicle-treated cells) ([1]; 1 μM, enantiomer 2): 0.93 ± 0.05; αTub (α-tubulin relative to vehicle-treated cells) ([1]; 10 μM, enantiomer 1): 1.20 ± 0.01; αTub (α-tubulin relative to vehicle-treated cells) ([1]; 10 μM, enantiomer 2): 0.93 ± 0.02; Plasma conc. ([2]; scaled to 5 mg/kg): 398 nM; concentration at 1 h [2, 7]: 1102 nM
C[C@@H](Nc1c(-c2c(F)cc(F)cc2F)c(Cl)nc2ncnn12)C(C)(C)C [(R)-5-chloro-N-(3,3-dimethylbutan-2-yl)-6-(2,4,6-trifluorophenyl)-[1,2,4]triazolo[1,5-a]pyrimidin-7-amine]	1.00 ± 0.06	1.03 ± 0.12	5.11 ± 0.47	7.19 ± 0.31	concentration at 1 h [2, 8]: 153 ± 33 nM; Kp at 1 h ([2]; mouse, 1 h @ 5.0 mg/kg): 2.2; concentration at 1 h [2, 9]: 69 ± 11 nM
CC(C)[C@@H](C)Nc1c(-c2c(F)cc(F)cc2F)c(Cl)nc2ncnn12 [(R)-5-chloro-N-(3-methylbutan-2-yl)-6-(2,4,6-trifluorophenyl)-[1,2,4]triazolo[1,5-a]pyrimidin-7-amine]	1.10 ± 0.20	0.91 ± 0.17	2.08 ± 0.09	2.54 ± 0.10	concentration at 1 h [2, 8]: 812 ± 61 nM; Kp at 1 h ([2]; mouse, 1 h @ 5.0 mg/kg): 2.5; concentration at 1 h [2, 9]: 320 ± 93 nM
C[C@H](Nc1c(-c2c(F)cc(F)cc2F)c(Cl)nc2ncnn12)C(C)(C)C [(S)-5-chloro-N-(3,3-dimethylbutan-2-yl)-6-(2,4,6-trifluorophenyl)-[1,2,4]triazolo[1,5-a]pyrimidin-7-amine]	0.80 ± 0.06	0.83 ± 0.06	1.03 ± 0.01	3.05 ± 0.18	–
CC(C)[C@H](C)Nc1c(-c2c(F)cc(F)cc2F)c(Cl)nc2ncnn12 [(S)-5-chloro-N-(3-methylbutan-2-yl)-6-(2,4,6-trifluorophenyl)-[1,2,4]triazolo[1,5-a]pyrimidin-7-amine]	0.94 ± 0.04	0.88 ± 0.02	1.22 ± 0.10	2.46 ± 0.18	–
